For 43 compounds, TGI and GI50 results are on record in PubChem BioAssay (NCI).

The structures appear in SMILES notation.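 These data come from cells grown in 96-well plates and exposed to compound for 48 hours at five concentrations. GI50 = concentration required for 50% inhibition of growth. Definition used: TGI = concentration required for complete inhibition of growth.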

Holding throughout (test): NCI tumour cell line growth inhibition, 48 h
Assay [1] has as its system PC-3 prostate.
Assay [2] concerns OVCAR-8 ovarian.
The subject of assay [3] is SR leukemia.
For assay [4], the system named is CAKI-1 renal.

Regarding `COc1cc2c(cc1OC)C(=O)N(NC1=NCCN1)C2=O`, the TGI in assay [1], in assay [2], in assay [3] and in assay [4] was above 100 µM each time.
Regarding `FC1=C2CCCCCC2SC1(F)F` (centres undefined), the TGI is above 100 µM in assay [1], above 100 µM in assay [2], 53.6 µM in assay [3] and above 100 µM in assay [4].
For `CC(C)C(NCc1c(O)ccc2c(-c3ccccc3)cc(=O)oc12)C(=O)O` (centres undefined), the TGI in assay [1], in assay [2], in assay [3] and in assay [4] was above 100 µM throughout.
`CC1=C(C(=O)OC(C)C)C(c2ccccc2C(F)(F)F)C(C(=O)OC(CO[N+](=O)[O-])CO[N+](=O)[O-])=C(C)N1` (centres undefined): the TGI in assay [1] was 12.2 µM; in assay [3] it was above 100 µM; in assay [4], 38.5 µM.
Take `COc1cccc(-c2nc(-c3cnccn3)n(COCCO)n2)c1`: the TGI in assay [1], in assay [2] and in assay [3] was above 100 µM each time.
In the case of `c1ccc(CC2(c3cc4ccccc4[nH]3)OCCO2)nc1`, the TGI in assay [1], in assay [2] and in assay [4] was above 100 µM throughout.
With `O=c1ccn(C2OC(CN(O)CCC3C(CO)OC(n4ccc(=O)[nH]c4=O)C3O)C(O)C2O)c(=O)[nH]1` (centres undefined), the TGI in assay [1], in assay [2] and in assay [4] was above 100 µM each time.
`Cc1nc2c(=O)n3c4c(cccc4c2o1)CCC3`: the TGI in assay [1], in assay [2] and in assay [4] was above 100 µM in each case.
In the case of `CC(C)(C)OC(=O)N(CCCCNCc1ccc2ccccc2c1)CCCNCc1ccc2ccccc2c1`, the TGI in assay [1] turned out to be 4.06 µM; in assay [2], 3.08 µM; in assay [4], 2.45 µM.
As to `CCOC(=O)C(=O)C(CCC(=O)c1ccc2ccccc2c1O)C(=O)OCC` (centres undefined), the TGI in assay [1], in assay [2], in assay [3] and in assay [4] was above 100 µM throughout.
For the compound `COc1ccc(CCc2nccn2C)cc1OC`, the TGI in assay [1], in assay [2], in assay [3] and in assay [4] was above 100 µM throughout.
For the compound `COc1ccc(N=[N+]([O-])c2ccc(OC)cc2)cc1`, the TGI in assay [1], in assay [2] and in assay [4] was above 100 µM throughout.
With `COc1ccc(NC2CC(C)N(C(=O)c3ccccc3)O2)cc1` (centres undefined), the TGI in assay [1], in assay [2], in assay [3] and in assay [4] was above 10 µM each time.
In the case of `C/C(=N\Nc1nc2ccccc2s1)c1cc(C)ncn1`, the TGI came to 34.5 µM in assay [1], 4.01 µM in assay [2], 9.82 µM in assay [3] and 6.63 µM in assay [4].
On to `CC(=O)OCC(Br)C1(C)CCC(C(C)(C)Br)O1` (centres undefined), for which the TGI in assay [1], in assay [3] and in assay [4] was above 100 µM throughout.
Turning to `N#CCCN(CCN(CCC#N)C(=O)Nc1ccccc1)C(=O)Nc1ccccc1`, the TGI in assay [1], in assay [2] and in assay [3] was above 100 µM each time.
Take `Cc1c(C)c(S(=O)(=O)N(CCCCCON)OCCCN)c(C)c2c1OC(C)(C)CC2`: the TGI was 26.4 µM in assay [1], 23.9 µM in assay [2], above 21.7 µM in assay [3] and 16 µM in assay [4].
For `S=c1[nH]nc(NNc2ccccc2)n1Nc1ccccc1` the same measures were above 100 µM, above 100 µM, above 91.1 µM and above 100 µM.
Take `CC(=O)c1sc(=N)n(-c2c(C)cccc2C)c1C`: the TGI in assay [1] and in assay [3] was above 100 µM throughout.
On to `Cn1c2ccccc2c(=O)c2[nH]c3ccccc3c21`, for which the TGI in assay [1], in assay [2] and in assay [4] was above 100 µM throughout.
Turning to `CC(=O)ON(C(C)=O)c1ccc(-c2nc3ccccc3s2)cc1C`, the TGI in assay [1], in assay [2], in assay [3] and in assay [4] was above 100 µM in each case.
Regarding `O=C1c2ccccc2C(=O)c2oc(Br)cc21`, the TGI in assay [1] stood at 11.1 µM; in assay [2], 2.92 µM; in assay [3] it was 5.78 µM; in assay [4], 3.43 µM.
Turning to `N#Cc1sc2c(c1O)c(=O)n(-c1ccccc1)c(=S)n2-c1ccccc1`, the TGI in assay [2] and in assay [3] was above 100 µM throughout.
On to `C/C(=N\NC(=S)NCc1ccccc1)c1nc2ncccc2[nH]1`, for which the TGI in assay [1] is 50.2 µM; in assay [2], 26.8 µM; in assay [3] it was above 100 µM; in assay [4], 61.2 µM.
In the same order, the values of `CC1=NN=C(N)NC1=CC(Sc1ccc(Cl)cc1)c1c(O)ccc2ccccc12` (centres undefined) are 53.4 µM, 43.6 µM, above 100 µM and above 69.6 µM.
For `COC(=O)c1c(-c2ccccc2)c2sc3ccccc3n2c1N` the same measures were above 100 µM, above 100 µM, above 100 µM and above 100 µM.
For `Nc1nc(N)c2nc(CNc3ccc(C(=O)NC(CCCCNC(=O)c4ccccc4C(=O)O)C(=O)O)cc3)cnc2n1` (centres undefined), the results for the GI50 in assay [1], in assay [2] and in assay [4] were 0.000432 µM, 0.0059 µM and 0.0237 µM, respectively. For the same compound, the TGI in assay [1], in assay [2], in assay [3] and in assay [4] was above 100 µM each time.
Take `C=CCN1CN(c2ccccc2)C2(CCN(CCCC3(c4ccc(F)cc4)OCCO3)CC2)C1=O`: the TGI in assay [1] came to 31.7 µM; in assay [2], 32.5 µM; in assay [3] it was 48.7 µM; in assay [4], 75.6 µM.
In the case of `c1ccc2cc3c(cc2c1)nc1ccccn13`, the TGI in assay [1], in assay [2] and in assay [3] was above 100 µM in each case.
On to `COc1cc(C2C(Cl)C(=O)N2NC(=O)c2ccc(NC(C)=O)cc2OC)ccc1O` (centres undefined), for which the TGI is 55 µM in assay [1], 73.3 µM in assay [2], above 100 µM in assay [3] and 94 µM in assay [4].
In the same order, the values of `N#Cc1c(N2CCOCC2)[nH]c(=O)c(C(c2c(Cl)cccc2Cl)c2c(O)c(C#N)c(N3CCOCC3)[nH]c2=O)c1O` are 37.7 µM, 34.1 µM, 26.3 µM and 33.2 µM.
For `O=c1oc2ccc([N+](=O)[O-])cc2c(Nc2ccc3c(c2)S(=O)(=O)c2ccccc2O3)c1[N+](=O)[O-]` the same measures were above 100 µM, above 100 µM, above 100 µM and above 100 µM.
For `C/C=C/[C@H](O[Si](C)(C)C(C)(C)C)[C@@H](O)/C=C/C(=O)OCC` the same measures were above 100 µM, 34.6 µM, 44.1 µM and 34.2 µM.
Take `CN(C)Cc1cc(C(C)(C)C)cc(C2CCCCC2)c1O`: the TGI in assay [1] was found to be 26.4 µM; in assay [2], 26.4 µM; in assay [3] it was 25.6 µM; in assay [4], 35 µM.
In the case of `Cc1cccc2c(=O)c3cccc([C@@H](C)C(=O)O)c3oc12`, the TGI in assay [1], in assay [2], in assay [3] and in assay [4] was above 100 µM each time.
With `CCOC(=O)/C(C#N)=C/c1ccc2c(c1)CC1(C2)Cc2cc(CC)c(C(C)O)cc2C1` (centres undefined), the TGI in assay [1] was 56.8 µM; in assay [2] it was 44.4 µM; in assay [3], above 28.9 µM; in assay [4], above 100 µM.
For `S=C1N=C(Cl)/C(=C\c2ccccc2)N1` the same measures were above 100 µM, above 100 µM, above 100 µM and above 100 µM.
In the same order, the values of `C=CCn1c(-c2ccc(-c3cs/c(=N\N=O)n3CC=C)cc2)cs/c1=N\N=O` are above 100 µM, above 100 µM, above 100 µM and above 100 µM.
For the compound `CN(C)Cc1cc(N=Nc2ccc(Cl)cc2)ccc1OC(=O)c1ccccc1`, the TGI in assay [1] is 29 µM; in assay [2], 34.4 µM; in assay [3], 31.8 µM.
As for `O=C1NC2(CCN(CCCC3(c4ccc(F)cc4)OCCO3)CC2)Oc2ccccc21`, the TGI in assay [2] and in assay [3] was above 100 µM each time.
As for `CCc1cc2c(oc3cc(C)ccc32)c(=O)n1C`, the TGI in assay [1], in assay [2] and in assay [3] was above 10 µM in each case.
On to `CCc1n[nH]c(=O)n1CCO`, for which the TGI in assay [1], in assay [2] and in assay [4] was above 100 µM in each case.
On to `COc1ccccc1CNC(=O)[C@H](Cc1ccc(O)cn1)NC(C)=O`, for which the TGI in assay [1], in assay [3] and in assay [4] was above 100 µM throughout.
